Holding throughout (format): biochemical
One assay concerns the target T1, KHS/MAP4K5 (Homo sapiens, UniProt Q9Y4K4).
T1 construct: purchased Reaction Biology
Kind of assay: HotSpot radiometric kinase assay (Reaction Biology), KHS/MAP4K5. To be noted: 1.5 nM kinase, substrate MBP 20 μM, 33P-ATP, 120 minutes at room temperature. The protocol:
The compounds were profiled in the HotSpot radiometric assays (Reaction Biology).
Briefly, • 1. Substrate indicated in Table 1 was dissolved in freshly prepared reaction buffer (20 mM HEPES (pH 7.5), 10 mM MgCl2, 1 mM EGTA, 0.01% Brij35, 0.02 mg/ml BSA, 0.1 mM Na3VO4, 2 mM DTT, 1% DMSO) at the concentration indicated in Table 1. • 2. Corresponding kinase (concentration indicated in Table 1) was added and the mixture was gently mixed. • 3. Tested compound dissolved in DMSO was added into the kinase reaction mixture. • 4. ^33P-ATP (specific activity 0.01 μCi/μL final) was added into the reaction mixture to initiate the reaction. • 5. The kinase reaction was incubated for 120 minutes at room temperature. • 6. Reaction mixture was spotted onto P81 ion exchange paper (Whatman K 3698-915). • 7. The filters were extensively washed with […]. • 7. The radioactive phosphorylated substrate remaining on the filter paper was measured.
Kinase activity data were expressed as the percent remaining kinase activity in tested samples compared to the vehicle (DMSO) reactions. IC50 values and curve fits were obtained using Prism4 Software (GraphPad).
Table 2 summarizes the inhibitory activities of indicated compounds tested in the in vitro kinase assays described above.

The target in the next assay is T2, DDR1 (Homo sapiens, UniProt Q08345).
T2 construct: purchased Reaction Biology
T2 sequence (Q08345 19-913): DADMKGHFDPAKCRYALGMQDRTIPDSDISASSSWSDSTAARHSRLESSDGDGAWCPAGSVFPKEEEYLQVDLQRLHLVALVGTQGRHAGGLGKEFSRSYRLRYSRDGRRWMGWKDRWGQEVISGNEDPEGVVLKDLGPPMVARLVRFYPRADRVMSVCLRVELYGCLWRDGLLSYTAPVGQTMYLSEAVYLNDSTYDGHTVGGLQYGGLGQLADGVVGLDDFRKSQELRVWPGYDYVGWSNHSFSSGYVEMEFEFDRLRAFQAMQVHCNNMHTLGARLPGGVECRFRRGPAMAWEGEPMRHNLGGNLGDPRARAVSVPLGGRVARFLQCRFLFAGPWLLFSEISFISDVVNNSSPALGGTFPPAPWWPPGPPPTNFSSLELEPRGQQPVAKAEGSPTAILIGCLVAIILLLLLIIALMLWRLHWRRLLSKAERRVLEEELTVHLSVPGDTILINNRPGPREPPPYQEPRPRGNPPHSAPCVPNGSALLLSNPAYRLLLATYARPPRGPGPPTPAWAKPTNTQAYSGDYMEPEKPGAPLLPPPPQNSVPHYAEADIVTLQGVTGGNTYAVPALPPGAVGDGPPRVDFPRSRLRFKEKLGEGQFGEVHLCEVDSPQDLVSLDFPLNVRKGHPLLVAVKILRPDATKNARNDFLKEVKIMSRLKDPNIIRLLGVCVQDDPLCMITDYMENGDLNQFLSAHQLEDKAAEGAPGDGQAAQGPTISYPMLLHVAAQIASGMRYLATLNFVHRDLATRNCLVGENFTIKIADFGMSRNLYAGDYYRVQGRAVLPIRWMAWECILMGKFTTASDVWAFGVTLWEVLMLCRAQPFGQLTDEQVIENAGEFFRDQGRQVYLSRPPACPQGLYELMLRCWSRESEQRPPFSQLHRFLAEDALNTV
Kind of assay: HotSpot radiometric kinase assay (Reaction Biology), DDR1. To be noted: 200 nM kinase, substrate IRS1tide 20 μM, 33P-ATP, 120 minutes at room temperature. The method in brief: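 Radiometric filter-binding assay: kinase and substrate in 20 mM HEPES pH 7.5, 10 mM MgCl2, 1 mM EGTA, 2 mM DTT, 1% DMSO. Reaction started with ^33P-ATP (0.01 μCi/μL final), run 120 minutes at room temperature. Activity expressed as percent of DMSO control; IC50 from curve fits.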

The target of a further assay is T3, FLT3 (Homo sapiens, UniProt P36888).
T3 construct: purchased Reaction Biology
T3 sequence (P36888 27-993): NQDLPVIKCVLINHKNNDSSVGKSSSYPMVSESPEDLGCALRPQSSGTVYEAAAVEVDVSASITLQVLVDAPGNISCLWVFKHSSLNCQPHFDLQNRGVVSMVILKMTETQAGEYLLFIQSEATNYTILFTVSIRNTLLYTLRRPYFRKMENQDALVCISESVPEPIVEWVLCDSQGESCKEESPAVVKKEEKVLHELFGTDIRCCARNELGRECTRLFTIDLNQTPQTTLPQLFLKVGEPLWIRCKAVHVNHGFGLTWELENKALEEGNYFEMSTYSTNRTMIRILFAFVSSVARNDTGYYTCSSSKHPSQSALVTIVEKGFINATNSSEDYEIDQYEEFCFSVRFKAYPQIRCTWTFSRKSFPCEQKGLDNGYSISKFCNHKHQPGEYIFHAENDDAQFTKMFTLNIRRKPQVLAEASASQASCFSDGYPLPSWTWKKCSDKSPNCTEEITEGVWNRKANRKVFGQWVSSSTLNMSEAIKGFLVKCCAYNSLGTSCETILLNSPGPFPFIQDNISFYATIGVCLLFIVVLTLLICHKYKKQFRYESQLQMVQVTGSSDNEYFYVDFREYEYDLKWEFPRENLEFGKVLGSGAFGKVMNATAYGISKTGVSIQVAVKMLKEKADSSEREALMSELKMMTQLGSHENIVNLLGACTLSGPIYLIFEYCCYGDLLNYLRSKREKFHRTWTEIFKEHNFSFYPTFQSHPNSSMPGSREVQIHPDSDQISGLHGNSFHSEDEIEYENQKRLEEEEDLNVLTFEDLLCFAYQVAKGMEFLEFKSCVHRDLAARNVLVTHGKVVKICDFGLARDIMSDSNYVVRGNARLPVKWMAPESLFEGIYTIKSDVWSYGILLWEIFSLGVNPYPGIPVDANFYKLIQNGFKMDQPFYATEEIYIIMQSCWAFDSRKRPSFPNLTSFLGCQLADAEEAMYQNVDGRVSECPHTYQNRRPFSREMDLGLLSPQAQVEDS
Kind of assay: HotSpot radiometric kinase assay (Reaction Biology), FLT3. The settings on record: 4 nM kinase, substrate ABLtide 20 μM, 33P-ATP, 120 minutes at room temperature. The procedure, abridged: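 Radiometric filter-binding assay with kinase and substrate in HEPES pH 7.5 buffer containing MgCl2, EGTA, Brij35, BSA, Na3VO4, DTT and 1% DMSO, started with ^33P-ATP and run 120 min at room temperature. Phosphorylated substrate on P81 paper counted; activity expressed as % of DMSO control, IC50 from curve fits.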

What is called IC50 is the concentration that gives 50% inhibition. A high value points to weaker potency.

T1 sequence (Q9Y4K4 whole entry): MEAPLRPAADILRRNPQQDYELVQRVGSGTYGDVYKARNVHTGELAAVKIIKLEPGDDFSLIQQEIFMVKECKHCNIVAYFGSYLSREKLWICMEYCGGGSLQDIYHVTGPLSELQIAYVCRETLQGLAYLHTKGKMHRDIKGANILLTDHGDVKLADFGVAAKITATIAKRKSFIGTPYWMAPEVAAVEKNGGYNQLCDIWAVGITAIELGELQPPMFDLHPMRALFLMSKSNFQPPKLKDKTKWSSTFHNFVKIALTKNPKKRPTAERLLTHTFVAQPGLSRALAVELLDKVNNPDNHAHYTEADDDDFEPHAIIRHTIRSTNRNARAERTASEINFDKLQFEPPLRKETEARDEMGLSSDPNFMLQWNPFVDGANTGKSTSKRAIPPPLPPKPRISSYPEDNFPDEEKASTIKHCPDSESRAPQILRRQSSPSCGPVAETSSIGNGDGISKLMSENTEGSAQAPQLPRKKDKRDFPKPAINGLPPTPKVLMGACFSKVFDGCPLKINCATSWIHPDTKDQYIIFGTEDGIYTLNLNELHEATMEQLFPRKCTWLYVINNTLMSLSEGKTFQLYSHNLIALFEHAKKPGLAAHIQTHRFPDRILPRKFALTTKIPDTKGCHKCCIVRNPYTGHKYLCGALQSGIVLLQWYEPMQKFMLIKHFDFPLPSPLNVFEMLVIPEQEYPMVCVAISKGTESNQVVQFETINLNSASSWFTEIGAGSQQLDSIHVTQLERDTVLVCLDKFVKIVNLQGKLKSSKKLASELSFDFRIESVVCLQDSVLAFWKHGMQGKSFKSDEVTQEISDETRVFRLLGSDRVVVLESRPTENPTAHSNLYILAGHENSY

`CC(c1ccccc1)c1coc2cc(-c3ccc(N4CCN(C)CC4)cc3)cnc12` (racemic) [Preparative Example 203, 1-methyl-4-{4-[3-(1-phenylethyl)furo[3,2-b]pyridin-6-yl]phenyl}piperazine]: the IC50 at KHS/MAP4K5 worked out at 804 nM; against DDR1, 808 nM.

For `COc1cccc(-c2coc3cc(-c4ccc(N5CCNCC5)cc4)cnc23)c1` [Preparative Example 14, 3-(3-methoxyphenyl)-6-(4-(piperazin-1-yl)phenyl)furo[3,2-b]pyridine], the values for the concentration for half-maximal inhibition (IC50) against KHS/MAP4K5, against DDR1 and at FLT3 were 906 nM, 116 nM and 49 nM, respectively.

As to `Cn1cc(-c2coc3cc(-c4ccc(N5CCNCC5)cc4)cnc23)cn1` [Preparative Example 34, 3-(1-methyl-1H-pyrazol-4-yl)-6-(4-(piperazin-1-yl)phenyl)furo[3,2-b]pyridine], the IC50 against KHS/MAP4K5 turned out to be 433 nM; against DDR1, 64 nM; on FLT3, 100 nM.

For the compound `Fc1ccc(-c2coc3cc(-c4ccc(N5CCNCC5)cc4)cnc23)cc1` [Preparative Example 51, 3-(4-fluorophenyl)-6-(4-(piperazin-1-yl)phenyl)furo[3,2-b]pyridine], the IC50 against KHS/MAP4K5 is 675 nM; at DDR1, 42 nM; against FLT3, 20 nM.

Consider `CN(C)C(=O)c1cccc(-c2coc3cc(-c4ccc(N5CCNCC5)cc4)cnc23)c1` [Preparative Example 54, N,N-dimethyl-3-(6-(4-(piperazin-1-yl)phenyl)furo[3,2-b]pyridin-3-yl)benzamide], for which the IC50 on KHS/MAP4K5 was found to be 538 nM; against DDR1 it was 301 nM; against FLT3 it was 207 nM.

With `CN(C)S(=O)(=O)c1cccc(-c2coc3cc(-c4ccc(N5CCNCC5)cc4)cnc23)c1` [Preparative Example 61, N,N-dimethyl-3-(6-(4-(piperazin-1-yl)phenyl)furo[3,2-b]pyridin-3-yl)benzenesulfonamide], the IC50 against KHS/MAP4K5 was determined as 896 nM; at DDR1, 272 nM; at FLT3, 73 nM.

`NCc1cccc(-c2coc3cc(-c4ccc(N5CCNCC5)cc4)cnc23)c1` [Preparative Example 87, (3-(6-(4-(piperazin-1-yl)phenyl)furo[3,2-b]pyridin-3-yl)phenyl)methanamine]: the IC50 at KHS/MAP4K5 came to 456 nM; at DDR1, 301 nM; against FLT3, 62 nM.

`CN1CCN(c2ccc(-c3cnc4c(-c5cccc(CO)c5)coc4c3)cc2)CC1` [Preparative Example 90, (3-(6-(4-(4-methylpiperazin-1-yl)phenyl)furo[3,2-b]pyridin-3-yl)phenyl)methanol]: the results for the concentration for half-maximal inhibition (IC50) at KHS/MAP4K5, on DDR1 and against FLT3 were 394 nM, 163 nM and 24 nM, respectively.

Consider `CC(=O)OCc1cccc(-c2coc3cc(-c4ccc(N5CCN(C)CC5)cc4)cnc23)c1` [Preparative Example 94, 3-(6-(4-(4-methylpiperazin-1-yl)phenyl)furo[3,2-b]pyridin-3-yl)benzyl acetate], for which the IC50 amounted to 641 nM at KHS/MAP4K5, 155 nM at DDR1 and 77 nM at FLT3.

Consider `CNc1cccc(-c2coc3cc(-c4ccc(N5CCN(C)CC5)cc4)cnc23)c1` [Preparative Example 110, N-methyl-3-(6-(4-(4-methylpiperazin-1-yl)phenyl)furo[3,2-b]pyridin-3-yl)aniline], for which the IC50 was determined as 934 nM at KHS/MAP4K5, 187 nM against DDR1 and 53 nM at FLT3.

In the case of `c1cc(SC2CCC2)cc(-c2coc3cc(-c4ccc(N5CCNCC5)cc4)cnc23)c1` [Preparative Example 164, 3-(3-(cyclobutylthio)phenyl)-6-(4-(piperazin-1-yl)phenyl)furo[3,2-b]pyridine], the IC50 against KHS/MAP4K5 is 737 nM; on DDR1, 361 nM; on FLT3 it was 151 nM.

Regarding `Fc1cccc(-c2coc3cc(-c4ccc(N5CCNCC5)cc4)cnc23)c1` [Preparative Example 170, 3-(3-fluorophenyl)-6-(4-(piperazin-1-yl)phenyl)furo[3,2-b]pyridine], the IC50 worked out at 889 nM against KHS/MAP4K5, 120 nM against DDR1 and 31 nM against FLT3.

For `CN1CCN(c2ccc(-c3cnc4c(-c5cc(C(N)=O)ccc5F)coc4c3)cc2)CC1` [Preparative Example 211, 4-fluoro-3-(6-(4-(4-methylpiperazin-1-yl)phenyl)furo[3,2-b]pyridin-3-yl)benzamide], the IC50 against KHS/MAP4K5 was 167 nM; against DDR1, 528 nM; against FLT3, 21 nM.

Consider `CN1CCN(c2ccc(-c3cnc4c(-c5cc(F)cc(C(N)=O)c5)coc4c3)cc2)CC1` [Preparative Example 219, 3-fluoro-5-{6-[4-(4-methylpiperazin-1-yl)phenyl]furo[3,2-b]pyridin-3-yl}benzamide], for which the IC50 was 756 nM on KHS/MAP4K5, 27 nM against DDR1 and 56 nM against FLT3.

For `CN1CCN(c2ccc(-c3cnc4c(Oc5ccccc5)coc4c3)cc2)CC1` [Preparative Example 229, 1-methyl-4-(4-{3-phenoxyfuro[3,2-b]pyridin-6-yl}phenyl)piperazine], the IC50 against KHS/MAP4K5 was found to be 284 nM; on DDR1 it was 308 nM; against FLT3 it was 729 nM.

The record behind these values is patent US20250352550A1, “SUBSTITUTED FUROPYRIDINES FOR THERAPEUTIC USE” (MASARYKOVA UNIVERZITA, priority 2022, published 2025).
